Source: ChEMBL document CHEMBL1828525, “Metronidazole acid acyl sulfonamide: a novel class of anticancer agents and potential EGFR tyrosine kinase inhibitors” (Bioorg Med Chem, 2011)
Converted amounts (≈) assume the structure as drawn.

Assays:
[1] = target: Receptor tyrosine-protein kinase erbB-2 (Homo sapiens, UniProt P04626);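 also: recombinant His6-tagged human HER-2, autophosphorylation inhibition read by DELFIA time-resolved fluorescence after 10 min preincubation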
Description: Inhibition of human recombinant (His)6-tagged HER-2 autophosphorylation pre-incubated for 10 mins by DELFIA/Time-resolved fluorimetry

[2] = target: Epidermal growth factor receptor (Homo sapiens, UniProt P00533);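 also: recombinant His6-tagged EGFR autophosphorylation, read by DELFIA time-resolved fluorimetry after a 10 min preincubation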
Description: Inhibition of human recombinant (His)6-tagged EGFR autophosphorylation pre-incubated for 10 mins by DELFIA/Time-resolved fluorimetry

[3] = test system: A549; assay: Antiproliferative activity against human A549 cells after 48 hrs by MTT assay; type: functional, cell-based; details: A549, 48 h
[4] = test system: B16-F10; assay: Antiproliferative activity against mouse B16-F10 cells after 48 hrs by MTT assay; type: functional, cell-based; details: B16-F10, 48 h

Chain of Receptor tyrosine-protein kinase erbB-2 (P04626 whole entry): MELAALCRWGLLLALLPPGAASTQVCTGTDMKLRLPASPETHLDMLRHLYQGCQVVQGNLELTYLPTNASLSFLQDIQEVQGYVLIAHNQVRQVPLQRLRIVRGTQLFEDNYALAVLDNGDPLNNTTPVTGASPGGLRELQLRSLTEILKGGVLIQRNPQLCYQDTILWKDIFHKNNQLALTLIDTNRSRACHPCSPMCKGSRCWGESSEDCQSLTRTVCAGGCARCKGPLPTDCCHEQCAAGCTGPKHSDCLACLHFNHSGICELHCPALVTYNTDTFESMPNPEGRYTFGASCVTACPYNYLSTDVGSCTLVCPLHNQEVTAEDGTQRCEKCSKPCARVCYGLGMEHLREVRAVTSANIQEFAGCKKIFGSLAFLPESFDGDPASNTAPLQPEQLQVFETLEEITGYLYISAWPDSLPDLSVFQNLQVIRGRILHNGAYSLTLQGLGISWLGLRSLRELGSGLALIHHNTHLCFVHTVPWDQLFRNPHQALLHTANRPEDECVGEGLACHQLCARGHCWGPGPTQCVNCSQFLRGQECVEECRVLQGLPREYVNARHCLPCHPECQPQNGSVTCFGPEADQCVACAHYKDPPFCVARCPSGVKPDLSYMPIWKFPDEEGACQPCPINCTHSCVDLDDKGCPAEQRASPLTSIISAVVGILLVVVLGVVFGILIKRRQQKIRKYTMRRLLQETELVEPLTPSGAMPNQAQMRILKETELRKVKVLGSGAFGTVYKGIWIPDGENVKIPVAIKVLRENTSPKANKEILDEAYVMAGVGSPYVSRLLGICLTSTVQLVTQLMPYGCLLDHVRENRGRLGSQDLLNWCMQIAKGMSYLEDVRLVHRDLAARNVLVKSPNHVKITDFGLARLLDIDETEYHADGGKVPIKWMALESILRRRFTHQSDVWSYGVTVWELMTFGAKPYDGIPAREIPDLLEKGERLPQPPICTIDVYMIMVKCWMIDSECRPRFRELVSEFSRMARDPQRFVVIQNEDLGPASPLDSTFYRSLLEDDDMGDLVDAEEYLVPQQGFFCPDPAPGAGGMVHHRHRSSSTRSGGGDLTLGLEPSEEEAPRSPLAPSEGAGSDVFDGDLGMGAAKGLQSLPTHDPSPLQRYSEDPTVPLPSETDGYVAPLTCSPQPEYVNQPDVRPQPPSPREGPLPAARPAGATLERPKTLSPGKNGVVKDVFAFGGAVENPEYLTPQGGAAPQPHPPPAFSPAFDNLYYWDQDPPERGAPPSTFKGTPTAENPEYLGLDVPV
Chain of Epidermal growth factor receptor (P00533 whole entry): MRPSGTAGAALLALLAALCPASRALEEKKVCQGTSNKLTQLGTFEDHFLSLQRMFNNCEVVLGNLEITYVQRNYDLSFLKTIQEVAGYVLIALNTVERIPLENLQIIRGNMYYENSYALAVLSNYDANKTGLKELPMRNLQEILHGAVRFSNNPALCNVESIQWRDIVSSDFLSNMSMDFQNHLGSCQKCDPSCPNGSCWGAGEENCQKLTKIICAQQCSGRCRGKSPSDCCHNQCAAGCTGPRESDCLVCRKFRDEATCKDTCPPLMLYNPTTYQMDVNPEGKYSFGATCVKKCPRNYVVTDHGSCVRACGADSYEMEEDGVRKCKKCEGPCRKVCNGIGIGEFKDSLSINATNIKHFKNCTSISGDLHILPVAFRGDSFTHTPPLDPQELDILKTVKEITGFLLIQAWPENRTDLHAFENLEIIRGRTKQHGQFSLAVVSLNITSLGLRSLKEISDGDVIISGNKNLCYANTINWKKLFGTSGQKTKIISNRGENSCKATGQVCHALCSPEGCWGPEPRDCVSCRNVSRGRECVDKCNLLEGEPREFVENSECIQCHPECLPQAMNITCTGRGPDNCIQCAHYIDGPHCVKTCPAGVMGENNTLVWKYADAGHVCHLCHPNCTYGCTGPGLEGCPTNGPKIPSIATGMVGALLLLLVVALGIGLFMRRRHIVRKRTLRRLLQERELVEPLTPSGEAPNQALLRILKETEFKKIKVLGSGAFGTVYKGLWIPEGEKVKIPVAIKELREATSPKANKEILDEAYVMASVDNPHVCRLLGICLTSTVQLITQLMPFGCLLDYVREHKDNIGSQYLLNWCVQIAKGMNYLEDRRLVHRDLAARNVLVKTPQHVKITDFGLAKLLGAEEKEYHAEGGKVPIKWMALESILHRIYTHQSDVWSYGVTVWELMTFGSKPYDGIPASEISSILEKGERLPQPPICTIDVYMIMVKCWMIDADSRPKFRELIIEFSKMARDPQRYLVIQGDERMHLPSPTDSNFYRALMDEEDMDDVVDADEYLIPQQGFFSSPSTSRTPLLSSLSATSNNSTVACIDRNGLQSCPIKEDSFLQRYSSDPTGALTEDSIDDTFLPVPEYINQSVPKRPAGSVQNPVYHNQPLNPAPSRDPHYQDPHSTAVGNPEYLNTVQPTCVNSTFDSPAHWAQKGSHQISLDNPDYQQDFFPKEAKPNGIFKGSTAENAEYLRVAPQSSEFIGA

| Structure (SMILES) | IC50 [1] | IC50 [2] | IC50 [3] | IC50 [4] |
| --- | --- | --- | --- | --- |
| Cc1ccc(S(=O)(=O)NC(=O)Cc2ccc(Cl)cc2)cc1 | 15.6 µM | 13.7 µM |  |  |
| COc1ccc(CC(=O)NS(=O)(=O)c2ccc(C)cc2)cc1 | > 50 µM | 38.5 µM |  |  |
| Cc1ccc(S(=O)(=O)NC(=O)Cc2ccc(Br)cc2)cc1 | 20.3 µM | 18.4 µM |  |  |
| COc1ccc(CC(=O)NS(=O)(=O)c2ccc(Br)cc2)cc1 | 25 µM | 24.2 µM |  |  |
| O=C(Cc1cccc(Br)c1)NS(=O)(=O)c1ccc(Br)cc1 | 27.4 µM | 24.3 µM |  |  |
| O=C(Cc1ccc(Br)cc1)NS(=O)(=O)c1ccccc1 | 19 µM | 17.8 µM |  |  |
| COc1ccc(CC(=O)NS(=O)(=O)c2ccc(Cl)cc2)cc1 | 37.9 µM | 32.9 µM |  |  |
| O=C(Cc1cccc(Br)c1)NS(=O)(=O)c1ccc(F)cc1 | 20.4 µM | 18.7 µM |  |  |
| O=C(Cc1cccc(Br)c1)NS(=O)(=O)c1ccc(Cl)cc1 | 23.5 µM | 21.3 µM |  |  |
| COc1ccc(CC(=O)NS(=O)(=O)c2ccc(F)cc2)cc1 | 23.4 µM | 21.8 µM |  |  |
| O=C(Cc1cccc(Br)c1)NS(=O)(=O)c1ccccc1 | 26.3 µM | 24.7 µM |  |  |
| O=C(Cc1ccc(Br)cc1)NS(=O)(=O)c1ccc(Br)cc1 | 19.8 µM |  |  |  |
| COc1ccc(CC(=O)NS(=O)(=O)c2ccccc2)cc1 | 29.1 µM | 26.2 µM |  |  |
| Cc1ccc(S(=O)(=O)NC(=O)Cc2cccc(Br)c2)cc1 | 27.9 µM | 26.2 µM |  |  |
| O=C(Cc1ccc(Br)cc1)NS(=O)(=O)c1ccc(F)cc1 | 16.3 µM | 14.5 µM |  |  |
| O=C(Cc1ccc(Br)cc1)NS(=O)(=O)c1ccc(Cl)cc1 | 18.9 µM | 15.9 µM |  |  |

Compounds with a lower IC50 [1], results first:

| IC50 [1] | IC50 [2] | IC50 [3] | IC50 [4] | Structure (SMILES) |
| --- | --- | --- | --- | --- |
| 8.41 µM | 6.74 µM | 10.1 µg/mL (≈ 34.5 µM) | 9.07 µg/mL (≈ 30.9 µM) | O=C(Cc1ccc(F)cc1)NS(=O)(=O)c1ccccc1 |
| 11.1 µM | 9.59 µM |  |  | O=C(Cc1ccc(Cl)cc1)NS(=O)(=O)c1ccc(F)cc1 |
| 1.53 µM | 0.39 µM | 1.26 µg/mL (≈ 3.68 µM) | 0.35 µg/mL (≈ 1.02 µM) | Cc1ncc([N+](=O)[O-])n1CC(=O)NS(=O)(=O)c1ccc(F)cc1 |
| 7.02 µM | 5.17 µM | 5.64 µg/mL (≈ 18.1 µM) | 4.23 µg/mL (≈ 13.6 µM) | O=C(Cc1ccc(F)cc1)NS(=O)(=O)c1ccc(F)cc1 |
| 7.56 µM | 5.93 µM | 6.28 µg/mL (≈ 19.2 µM) | 6.36 µg/mL (≈ 19.4 µM) | O=C(Cc1ccc(F)cc1)NS(=O)(=O)c1ccc(Cl)cc1 |
| 3.59 µM | 2.17 µM | 3.03 µg/mL (≈ 7.51 µM) | 2.37 µg/mL (≈ 5.88 µM) | Cc1ncc([N+](=O)[O-])n1CC(=O)NS(=O)(=O)c1ccc(Br)cc1 |
| 3.41 µM | 1.51 µM | 2.47 µg/mL (≈ 6.88 µM) | 0.92 µg/mL (≈ 2.56 µM) | Cc1ncc([N+](=O)[O-])n1CC(=O)NS(=O)(=O)c1ccc(Cl)cc1 |
| 8.18 µM | 6.41 µM | 7.94 µg/mL (≈ 21.3 µM) | 8.2 µg/mL (≈ 22 µM) | O=C(Cc1ccc(F)cc1)NS(=O)(=O)c1ccc(Br)cc1 |
| 10.5 µM | 8.28 µM | 12 µg/mL (≈ 39.2 µM) | 9.94 µg/mL (≈ 32.3 µM) | Cc1ccc(S(=O)(=O)NC(=O)Cc2ccc(F)cc2)cc1 |
| 13.1 µM | 11.9 µM |  |  | O=C(Cc1ccc(Cl)cc1)NS(=O)(=O)c1ccccc1 |
| 13.3 µM | 10.3 µM |  |  | O=C(Cc1ccc(Cl)cc1)NS(=O)(=O)c1ccc(Cl)cc1 |
| 4.76 µM | 3.43 µM | 4.38 µg/mL (≈ 12.9 µM) | 3.55 µg/mL (≈ 10.5 µM) | Cc1ccc(S(=O)(=O)NC(=O)Cn2c([N+](=O)[O-])cnc2C)cc1 |
| 4.21 µM |  |  |  | Cc1ncc([N+](=O)[O-])n1CC(=O)NS(=O)(=O)c1ccccc1 |
| 13.6 µM | 11.3 µM |  |  | O=C(Cc1ccc(Cl)cc1)NS(=O)(=O)c1ccc(Br)cc1 |
